Results on 28 molecules are retold here after patent publication US8563565B2, “Pyrazoloquinoline derivatives” (Eisai R&D Management Co., Ltd., priority 2011, dated 2013).

Where two headings read alike, the source gives them in different places.

Experiment [1] deals with T1, human recombinant PDE9 protein (Homo sapiens, UniProt O76083).
T1 construct: His-tag (inferred from the Ni column purification; a myc His-tag vector is named only for the HEK293 expression check); made in house; host or cells: silkworm (pYNG vector, Katakura Industries)
T1 sequence (O76083 whole entry): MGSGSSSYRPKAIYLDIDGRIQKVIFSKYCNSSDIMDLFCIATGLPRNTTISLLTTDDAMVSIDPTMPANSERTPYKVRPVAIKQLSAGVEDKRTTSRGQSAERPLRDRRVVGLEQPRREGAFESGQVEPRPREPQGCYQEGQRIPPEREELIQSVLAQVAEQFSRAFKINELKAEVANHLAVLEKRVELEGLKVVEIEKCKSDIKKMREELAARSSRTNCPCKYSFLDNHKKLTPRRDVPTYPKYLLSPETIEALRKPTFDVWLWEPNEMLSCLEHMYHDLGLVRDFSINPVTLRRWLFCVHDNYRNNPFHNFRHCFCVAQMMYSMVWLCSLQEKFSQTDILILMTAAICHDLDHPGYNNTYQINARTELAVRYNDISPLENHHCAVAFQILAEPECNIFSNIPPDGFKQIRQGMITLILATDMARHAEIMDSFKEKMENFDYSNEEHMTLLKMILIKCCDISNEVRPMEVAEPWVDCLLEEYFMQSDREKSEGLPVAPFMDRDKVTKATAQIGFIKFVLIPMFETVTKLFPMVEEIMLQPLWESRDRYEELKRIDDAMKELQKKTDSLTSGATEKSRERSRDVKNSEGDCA
Put plainly: PDE9 inhibitory activity test (measurement of PDE9 inhibitory action, [3H]-cGMP). The class given is biochemical. The note with it: PDE9 IC50, human recombinant PDE9, 30° C., 10 min. From the text:
1) Preparation of a Human Recombinant PDE9 Protein
An hsPDE9A 1cDNA fragment was amplified by being based on a base sequence (Accession No.: AF048837) of the hsPDE9A1 registered on GenBank data base, and by using the following sequences (Hokkaido System Science Co., Ltd.) as a primer and Human hippocampus cDNA library (Clontech Laboratories, Inc.) as a template DNA, and using Pfu50 DNA polymerase (Invitrogen Corp.), and by a polymerase chain reaction (PCR) of the following condition.
The condition of PCR: [96° C., 5 min]×1 cycle, [(96° C., 10 sec), (57° C., 5 sec), (72° C., 2 min)]×30 cycles
The obtained hsPDE9A 1 cDNA fragment was incorporated in a TOPO-TA cloning vector (Invitrogen Corp.), and the base sequence was checked; and thereafter, the resultant was transfected in a pcDNA 3.1/myc His-tag vector (Invitrogen Corp.) to thereby make a human PDE9 expression vector for mammal cells. The human PDE9 expression vector for mammal cells was transfected with transient expression to an HEK293 cell by using a LIPOFETAMINE 2000 Reagent (Gibco). It was confirmed by Western blot method that the PDE9A expressed in the HEK293 cell, and then, the human PDE9A 1cDNA fragment was transfected in a pYNG vector (Katakura Industries Co., Ltd.) to thereby make an expression vector for insect cells. A supernatant of homogenized silk worm in which a large amount of PDE9 was expressed was purified by an equilibrated Ni column using a buffer A (20 mmol/L Tris-HCl, pH: 8.0, 1 mmol/L DTT, 10 mmol/L imidazole). After 1 hour of mixing of the supernatant and the Ni column, cleaning was carried out using a buffer B (20 mmol/L Tris-HCl, pH: 8.0, 1 mmol/L […]), and elution was carried out using a buffer C (20 mmol/L Tris-HCl, pH: 8.0, 1 mmol/L DTT, 100 mmol/L imidazole). An elution fraction was preparatively collected to thereby obtain a PDE9 enzyme solution.
2) Measurement of PDE9 Inhibitory Action
To 100 μL of a buffer D (40 mmol/L Tris-HCl, pH: 7.4, 10 mmol/L MgCl2, 1 mM DTT, 2 μM cGMP) solution containing [^3H]-cGMP ([…]/mL), 10 μL of a compound solution for evaluation (a solution in which a compound was dissolved in DMSO and diluted so that the DMSO concentration became 5%) and 90 μL of a solution prepared by diluting the PDE9 enzyme solution prepared in the above with a buffer E (40 mmol/L Tris-HCl, pH: 7.4, 10 mmol/L MgCl2, 1 mM DTT, 1 mmol/L EGTA) were added under ice cooling. The resultant mixed solution was incubated at 30° C. for 10 min, and thereafter heated for 2 min in boiled water to stop the enzyme reaction of the PDE9. Then, the resultant was returned to room temperature; 50 μL of 5′-Nucleotidase (Biomol GmbH, 10 units/mL) was added thereto; and the resultant was incubated at 30° C. for 10 min to thereby convert [^3H]-5′-GMP formed in the previous reaction to [^3H]-guanosine. 500 μL of an anion exchange resin (Bio-Rad AG1-X2 resin, mesh size: 200-400, H2O:resin=2:1) was added to the resultant reaction liquid, and allowed to stand for 10 min, and thereafter centrifuged (2,000 rpm, 10 min); and a supernatant in which the [^3H]-guanosine was present was transferred to a LumaPlate (PerkinElmer, Inc.), and the radioactivity was measured by a TopCount NXT microplate scintillation and luminescence counter (PerkinElmer, Inc.).
The inhibition percentage of the evaluation compound was calculated using the following expression, taking the radioactivity of a control containing no evaluation compound to be (A), the radioactivity of a blank containing no enzyme to be (B), and the radioactivity of the evaluation compound to be (C). Inhibition percentage=100−{[(C)−(B)]/[(A)−(B)]}×100(%)
The IC50 value for PDE9 of the evaluation compound was determined from inhibition percentage for various concentrations.

Experiment [2] deals with cGMP in the cerebrospinal fluid. Briefly: Effect on rodent cerebrospinal fluid cGMP (rat). Format: in vivo. To be noted: po, read-out: % CSF cGMP increase from vehicle control. How it is done:
3) Effect on Rodent Cerebrospinal Fluid cGMP
The test compound was administered to ICR male mice (Charles River Laboratories Japan, Inc.), Sprague-Dawley male rats (SD) (Charles River Laboratories Japan, Inc.) or Long-Evans male rats (LE) (Institute for Animal Reproduction), and the cerebrospinal fluid was then collected under pentobarbital anesthesia and stored at −20° C. cGMP in the cerebrospinal fluid was measured in accordance with the acetylation EIA procedure of cGMP EIA kit (GE Healthcare) or the non-acetylation procedure of cGMP EIA kit (Cayman) The result was an increase (C) in the amount of cGMP of the test compound-administered group (B) relative to the amount of cGMP of the vehicle-administered group (A), and was calculated using the following formula cGMP increase(C)=[(B)−(A)]/(A)×100(%)

For the molecule `CCOc1cc(C)c(-c2ccc3c(c2)[nH]c(=O)c2cnn([C@H]4CCOC4)c23)c(C)n1` [Example 62, (S)-7-(6-ethoxy-2,4-dimethylpyridin-3-yl)-1-(tetrahydrofuran-3-yl)-1H-pyrazolo[4,3-c]quinolin-4(5H)-one], in experiment [1], the IC50 amounted to 11.1 nM. The change in vivo at 3 mg/kg in experiment [2] (Rattus norvegicus, 1 h) is 155%. Consider `Cc1cc(OC(F)F)nc(C)c1-c1ccc2c(c1)[nH]c(=O)c1cnn(C3CCOCC3)c12` [Example 18], for which the IC50 in experiment [1] stood at 9.3 nM. In experiment [2] (Rattus norvegicus, 1 h), the change in vivo at 3 mg/kg was 123%. Take `COc1nccc(C)c1-c1ccc2c(c1)[nH]c(=O)c1cnn(C3CCOCC3)c12` [Example 6, 7-(2-methoxy-4-methylpyridin-3-yl)-1-(tetrahydro-2H-pyran-4-yl)-1H-pyrazolo[4,3-c]quinolin-4(5H)-one]: in experiment [1], the IC50 amounted to 6.86 nM. The change in vivo at 10 mg/kg in experiment [2] (Rattus norvegicus, 1 h) is 120%. With `COc1nccc(C)c1-c1ccc2c(c1)[nH]c(=O)c1cnn(C3CCOC3)c12` (single isomer, unassigned) [32 (−)], the IC50 in experiment [1] worked out at 12.2 nM. Also, the change in vivo at 10 mg/kg in experiment [2] (rat(SD), 10 mg/kg p.o., sampling time 1 hr) came to 72%.

On to `COc1cc(C)c(-c2ccc3c(c2)[nH]c(=O)c2cnn(C4CCOCC4)c23)c(CF)n1` [Example 24], for which the IC50 in experiment [1] is 18.7 nM. In experiment [2] (Rattus norvegicus, 1 h), the change in vivo at 10 mg/kg turned out to be 149%.

Turning to `COc1nccc(C)c1-c1ccc2c(c1)[nH]c(=O)c1cnn(C3CCCOC3)c12` (single isomer, unassigned) [39 (−)], the IC50 in experiment [1] turned out to be 4.08 nM. As to `COc1nc(CF)cc(C)c1-c1ccc2c(c1)[nH]c(=O)c1cnn(C3CCCOC3)c12` (single isomer, unassigned) [35 (+)], the IC50 in experiment [1] was found to be 2.62 nM. Take `COc1cc(C)c(-c2ccc3c(c2)[nH]c(=O)c2cnn(C4COCCOC4)c23)c(C)c1` [Example 44]: the IC50 in experiment [1] worked out at 12.1 nM. Still for that read-out and setting: as for `Cc1cnc(OC(F)F)c(C)c1-c1ccc2c(c1)[nH]c(=O)c1cnn([C@H]3CCOC3)c12` [Example 49], the figure is 12.2 nM; as for `COc1nc(CF)cc(C)c1-c1ccc2c(c1)[nH]c(=O)c1cnn(C3CCOC3)c12` (single isomer, unassigned) [31 (−)], 7.42 nM.

As to `COCc1cc(C)c(-c2ccc3c(c2)[nH]c(=O)c2cnn(C4CCOCC4)c23)c(C)c1` [Example 7], in experiment [1], the IC50 came out at 9.2 nM.

With `COc1nc(C)cc(C)c1-c1ccc2c(c1)[nH]c(=O)c1cnn(C3CCOC3)c12` (single isomer, unassigned; (-)) [28 (−), (−)-7-(2-methoxy-4,6-dimethylpyridin-3-yl)-1-(tetrahydrofuran-3-yl)-1H-pyrazolo[4,3-c]quinolin-4(5H)-one], in experiment [1], the IC50 worked out at 8.36 nM. In addition, the change in vivo at 3 mg/kg in experiment [2] (Rattus norvegicus, 1 h) was 257%.

`COc1nc(C)cc(C)c1-c1cc2[nH]c(=O)c3cnn([C@@H]4CCOC4)c3c2cc1F` [Example 58]: the concentration for half-maximal inhibition (IC50) in experiment [1] stood at 11.7 nM. Consider `COc1ncc(F)c(C)c1-c1ccc2c(c1)[nH]c(=O)c1cnn(C3CCOCC3)c12` [Example 12], for which, in experiment [1], the half-inhibitory concentration (IC50) was determined as 19.7 nM. Besides, in experiment [2] (Rattus norvegicus, 1 h), the change in vivo at 3 mg/kg turned out to be 91%.

Take `Cc1cc(C)c(-c2ccc3c(c2)[nH]c(=O)c2cnn(C4CCOCC4)c23)c(CF)n1` [Example 20]: in experiment [1], the IC50 was found to be 28.9 nM. `COc1cc(C)c(-c2ccc3c(c2)[nH]c(=O)c2cnn(C4CCCOCC4)c23)c(C)c1` (single isomer, unassigned) [42 (−)]: the IC50 in experiment [1] was found to be 22 nM. With `COc1nc(C)c(Cl)c(C)c1-c1ccc2c(c1)[nH]c(=O)c1cnn(C3CCOCC3)c12` [Example 11], in experiment [1], the IC50 turned out to be 11.3 nM. Turning to `COc1nc(CF)cc(C)c1-c1ccc2c(c1)[nH]c(=O)c1cnn(C3CCOC3)c12` (single isomer, unassigned) [31 (+)], the half-inhibitory concentration (IC50) in experiment [1] turned out to be 20.1 nM. In the case of `COc1cc(C)c(-c2ccc3c(c2)[nH]c(=O)c2cnn(C4COCCOC4)c23)c(C)n1` [Example 46], the IC50 in experiment [1] was 18.1 nM. Consider `Cc1cc(F)nc(C)c1-c1ccc2c(c1)[nH]c(=O)c1cnn(C3CCOCC3)c12` [Example 8], for which the IC50 in experiment [1] amounted to 25.2 nM.

As for `COc1cc(C)c(-c2ccc3c(c2)[nH]c(=O)c2cnn(C4CCCOC4)c23)c(C)n1` (single isomer, unassigned) [37 (−)], the IC50 in experiment [1] is 10.1 nM. `COc1nc(CF)cc(C)c1-c1ccc2c(c1)[nH]c(=O)c1cnn(C3CCCOC3)c12` (single isomer, unassigned) [35 (−)]: in experiment [1], the IC50 was 2.96 nM. As to `COc1cc(C)c(-c2ccc3c(c2)[nH]c(=O)c2cnn(C4CCOC4)c23)c(CF)n1` (stereo not drawn) [30 (+)], the IC50 in experiment [1] came out at 225 nM. As to `COc1nc(C)cc(C)c1-c1cc2[nH]c(=O)c3cnn(C4CCOCC4)c3c2cc1F` [Example 52, 8-fluoro-7-(2-methoxy-4,6-dimethylpyridin-3-yl)-1-(tetrahydro-2H-pyran-4-yl)-1H-pyrazolo[4,3-c]quinolin-4(5H)-one], in experiment [1], the IC50 worked out at 4.77 nM. On to `COc1nc(C)cc(C)c1-c1ccc2c(c1)[nH]c(=O)c1cnn(C3CCOC3)c12` (single isomer, unassigned) [28 (+)], for which, in experiment [1], the IC50 worked out at 29.6 nM.

With `COc1nc(C)cc(C)c1-c1ccc2c(c1)[nH]c(=O)c1cnn(C3CCCOC3)c12` (single isomer, unassigned; (-)) [34 (−), (−)-7-(2-methoxy-4,6-dimethylpyridin-3-yl)-1-(tetrahydro-2H-pyran-3-yl)-1H-pyrazolo[4,3-c]quinolin-4(5H)-one], the IC50 in experiment [1] stood at 3.36 nM. On the same count and under the same terms, as for `COc1cc(C)c(-c2cc3[nH]c(=O)c4cnn([C@@H]5CCOC5)c4c3cc2F)c(C)n1` [Example 59], the figure is 71.5 nM; as for `Cc1cccc(C)c1-c1ccc2c(c1)[nH]c(=O)c1cnn(C3CCOC3)c12` (single isomer, unassigned; (+)) [33 (+), (+)-7-(2,6-dimethylphenyl)-1-(tetrahydrofuran-3-yl)-1H-pyrazolo[4,3-c]quinolin-4(5H)-one], 113 nM.

The IC50 is the concentration needed to halve the response being measured.
